Test results taken from paper doi:10.1101/2021.09.30.462449v1 (biorxiv, 2021).

What was measured:
Assay in all cases: biochemical
Conditions in all cases: read-out: % inhibition mean (Lanthascreen)
KIT V654A = KIT V654A (Homo sapiens, UniProt P10721, V654A)
ABL1 M351T = ABL1 M351T (Homo sapiens, UniProt P00519, M351T)
TAOK3 (JIK) = TAOK3 (JIK) (Homo sapiens, UniProt Q9H2K8)
LIMK2 = LIMK2 (Homo sapiens, UniProt P53671)
STK39 (STLK3) = STK39 (STLK3) (Homo sapiens, UniProt Q9UEW8)
BRSK2 = BRSK2 (Homo sapiens, UniProt Q8IWQ3)
FGFR3 G697C = FGFR3 G697C (Homo sapiens, UniProt P22607, G697C)
AMPK (A1/B1/G2) = AMPK (A1/B1/G2) (Homo sapiens, UniProt Q13131)
TTK = TTK (Homo sapiens, UniProt P33981)
ERN2 = ERN2 (Homo sapiens, UniProt Q76MJ5)
ALK F1174L = ALK F1174L (Homo sapiens, UniProt Q9UM73, F1174L)
CAMKK2 (CaMKK beta) = CAMKK2 (CaMKK beta) (Homo sapiens, UniProt Q96RR4)
CDK16 (PCTK1)/cyclin Y = CDK16 (PCTK1)/cyclin Y (Homo sapiens, UniProt Q00536)
BRAF = BRAF (Homo sapiens, UniProt P15056)
CDK5 (Inactive) = CDK5 (Inactive) (Homo sapiens, UniProt Q00535)
MAP2K5 (MEK5) = MAP2K5 (MEK5) (Homo sapiens, UniProt Q13163)
STK17B (DRAK2) = STK17B (DRAK2) (Homo sapiens, UniProt O94768)
MAPK8 (JNK1) = MAPK8 (JNK1) (Homo sapiens, UniProt P45983)
PLK4 = PLK4 (Homo sapiens, UniProt O00444)
CDK3/cyclin E1 = CDK3/cyclin E1 (Homo sapiens, UniProt Q00526)
TGFBR1 (ALK5) = TGFBR1 (ALK5) (Homo sapiens, UniProt P36897)
DDR2 N456S = DDR2 N456S (Homo sapiens, UniProt Q16832, N456S)
ERN1 = ERN1 (Homo sapiens, UniProt O75460)
FYN A = FYN A (Homo sapiens, UniProt P06241)
ALK L1196M = ALK L1196M (Homo sapiens, UniProt Q9UM73, L1196M)
STK32C (YANK3) = STK32C (YANK3) (Homo sapiens, UniProt Q86UX6)
RET M918T = RET M918T (Homo sapiens, UniProt P07949, M918T)
TEC = TEC (Homo sapiens, UniProt P42680)

Chain of LIMK2 (P53671 whole entry): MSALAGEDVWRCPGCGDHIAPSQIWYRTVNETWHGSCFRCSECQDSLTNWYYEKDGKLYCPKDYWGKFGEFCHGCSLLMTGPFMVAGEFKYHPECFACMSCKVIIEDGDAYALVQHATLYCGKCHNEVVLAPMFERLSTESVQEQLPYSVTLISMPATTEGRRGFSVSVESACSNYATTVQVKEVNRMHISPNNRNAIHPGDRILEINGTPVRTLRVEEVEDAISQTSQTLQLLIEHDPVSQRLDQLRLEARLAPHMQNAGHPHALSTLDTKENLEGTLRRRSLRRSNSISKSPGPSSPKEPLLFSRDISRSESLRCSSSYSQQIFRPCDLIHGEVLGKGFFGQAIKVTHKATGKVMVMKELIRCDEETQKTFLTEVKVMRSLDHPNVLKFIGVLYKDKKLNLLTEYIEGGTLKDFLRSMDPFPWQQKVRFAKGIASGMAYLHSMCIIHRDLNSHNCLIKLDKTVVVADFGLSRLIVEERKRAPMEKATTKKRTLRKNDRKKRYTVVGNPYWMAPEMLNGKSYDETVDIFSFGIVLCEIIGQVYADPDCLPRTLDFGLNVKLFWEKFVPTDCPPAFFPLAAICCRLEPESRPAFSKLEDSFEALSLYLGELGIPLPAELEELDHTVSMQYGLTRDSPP
Chain of PLK4 (O00444 whole entry): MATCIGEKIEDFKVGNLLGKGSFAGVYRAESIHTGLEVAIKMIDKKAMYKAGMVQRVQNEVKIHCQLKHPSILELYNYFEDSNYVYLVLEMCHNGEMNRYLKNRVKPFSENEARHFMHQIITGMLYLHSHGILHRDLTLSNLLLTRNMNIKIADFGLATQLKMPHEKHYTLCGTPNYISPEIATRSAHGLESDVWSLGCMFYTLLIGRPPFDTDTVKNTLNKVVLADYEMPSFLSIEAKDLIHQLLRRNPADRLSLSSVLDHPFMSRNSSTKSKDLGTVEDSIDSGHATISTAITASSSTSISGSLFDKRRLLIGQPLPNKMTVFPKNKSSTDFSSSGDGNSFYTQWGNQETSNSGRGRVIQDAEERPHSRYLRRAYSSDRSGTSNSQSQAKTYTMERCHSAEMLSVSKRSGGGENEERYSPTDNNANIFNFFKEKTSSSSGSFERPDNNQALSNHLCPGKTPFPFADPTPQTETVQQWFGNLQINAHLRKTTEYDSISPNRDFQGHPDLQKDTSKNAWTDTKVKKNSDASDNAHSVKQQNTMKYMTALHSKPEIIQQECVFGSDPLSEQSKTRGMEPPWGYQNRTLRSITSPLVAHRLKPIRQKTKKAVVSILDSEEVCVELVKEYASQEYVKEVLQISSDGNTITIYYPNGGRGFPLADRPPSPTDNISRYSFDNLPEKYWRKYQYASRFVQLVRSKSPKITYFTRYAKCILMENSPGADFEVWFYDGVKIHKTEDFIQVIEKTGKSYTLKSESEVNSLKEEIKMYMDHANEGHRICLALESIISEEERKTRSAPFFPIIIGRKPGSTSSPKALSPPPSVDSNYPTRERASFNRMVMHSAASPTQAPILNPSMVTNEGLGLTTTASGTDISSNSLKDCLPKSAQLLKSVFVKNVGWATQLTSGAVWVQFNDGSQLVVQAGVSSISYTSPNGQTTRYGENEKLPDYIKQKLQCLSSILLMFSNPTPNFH
Chain of KIT V654A (P10721 whole entry V654A): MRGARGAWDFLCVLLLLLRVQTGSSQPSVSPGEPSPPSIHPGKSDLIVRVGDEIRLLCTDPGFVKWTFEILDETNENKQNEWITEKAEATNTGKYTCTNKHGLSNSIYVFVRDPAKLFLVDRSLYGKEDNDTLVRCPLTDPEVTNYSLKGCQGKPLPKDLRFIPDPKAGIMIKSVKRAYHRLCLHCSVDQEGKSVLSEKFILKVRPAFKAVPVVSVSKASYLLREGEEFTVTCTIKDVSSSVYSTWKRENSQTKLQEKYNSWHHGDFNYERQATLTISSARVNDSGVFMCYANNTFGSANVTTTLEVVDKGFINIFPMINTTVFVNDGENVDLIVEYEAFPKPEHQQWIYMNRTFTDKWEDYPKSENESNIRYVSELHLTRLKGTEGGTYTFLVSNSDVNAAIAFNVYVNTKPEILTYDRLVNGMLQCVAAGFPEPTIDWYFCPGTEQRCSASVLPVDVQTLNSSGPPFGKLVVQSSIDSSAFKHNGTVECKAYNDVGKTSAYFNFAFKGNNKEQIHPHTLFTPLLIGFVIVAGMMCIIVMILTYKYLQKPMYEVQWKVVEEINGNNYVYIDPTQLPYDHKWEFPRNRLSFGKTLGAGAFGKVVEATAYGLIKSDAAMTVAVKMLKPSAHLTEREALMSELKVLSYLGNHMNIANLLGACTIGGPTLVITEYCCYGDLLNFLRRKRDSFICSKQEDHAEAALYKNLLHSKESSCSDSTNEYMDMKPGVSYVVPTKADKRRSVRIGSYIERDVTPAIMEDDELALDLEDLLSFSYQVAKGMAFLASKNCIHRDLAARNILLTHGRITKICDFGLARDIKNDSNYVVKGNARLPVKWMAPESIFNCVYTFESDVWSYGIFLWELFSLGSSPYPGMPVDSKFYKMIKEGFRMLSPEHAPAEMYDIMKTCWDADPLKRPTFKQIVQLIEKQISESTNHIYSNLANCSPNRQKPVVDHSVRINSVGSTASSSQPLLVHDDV
Chain of BRAF (P15056 whole entry): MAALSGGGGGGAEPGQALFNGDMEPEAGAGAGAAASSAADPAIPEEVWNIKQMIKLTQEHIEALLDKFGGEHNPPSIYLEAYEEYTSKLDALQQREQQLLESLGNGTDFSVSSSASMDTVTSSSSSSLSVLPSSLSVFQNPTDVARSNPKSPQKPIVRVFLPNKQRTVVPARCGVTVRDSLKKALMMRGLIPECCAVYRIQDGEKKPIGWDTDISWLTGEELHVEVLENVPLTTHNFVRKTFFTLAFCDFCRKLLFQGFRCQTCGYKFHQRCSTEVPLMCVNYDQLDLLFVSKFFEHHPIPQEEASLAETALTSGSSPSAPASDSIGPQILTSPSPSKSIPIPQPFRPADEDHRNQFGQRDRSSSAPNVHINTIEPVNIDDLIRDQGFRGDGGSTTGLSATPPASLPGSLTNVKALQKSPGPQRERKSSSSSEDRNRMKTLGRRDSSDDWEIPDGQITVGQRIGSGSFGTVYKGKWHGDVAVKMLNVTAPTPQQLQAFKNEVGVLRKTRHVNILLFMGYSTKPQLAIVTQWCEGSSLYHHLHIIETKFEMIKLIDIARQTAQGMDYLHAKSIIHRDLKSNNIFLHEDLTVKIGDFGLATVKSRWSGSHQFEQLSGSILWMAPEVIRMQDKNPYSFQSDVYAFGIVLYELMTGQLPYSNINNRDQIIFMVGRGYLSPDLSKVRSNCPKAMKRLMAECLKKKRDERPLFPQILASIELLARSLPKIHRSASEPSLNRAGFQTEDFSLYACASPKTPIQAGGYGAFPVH
Chain of TGFBR1 (ALK5) (P36897 whole entry): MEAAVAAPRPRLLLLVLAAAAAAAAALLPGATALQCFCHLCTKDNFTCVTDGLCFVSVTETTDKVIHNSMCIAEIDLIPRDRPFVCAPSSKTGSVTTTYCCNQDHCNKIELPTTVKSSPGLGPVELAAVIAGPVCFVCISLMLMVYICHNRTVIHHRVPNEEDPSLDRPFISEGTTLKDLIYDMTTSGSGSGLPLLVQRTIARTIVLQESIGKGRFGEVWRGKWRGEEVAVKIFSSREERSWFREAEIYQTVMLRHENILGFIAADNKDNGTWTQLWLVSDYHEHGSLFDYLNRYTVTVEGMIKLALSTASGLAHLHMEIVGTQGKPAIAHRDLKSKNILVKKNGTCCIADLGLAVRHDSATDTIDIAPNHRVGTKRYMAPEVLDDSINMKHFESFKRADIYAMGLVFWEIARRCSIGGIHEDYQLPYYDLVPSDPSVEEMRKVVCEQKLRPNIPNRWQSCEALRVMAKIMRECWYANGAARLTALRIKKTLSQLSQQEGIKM
Chain of CDK16 (PCTK1)/cyclin Y (Q00536 whole entry): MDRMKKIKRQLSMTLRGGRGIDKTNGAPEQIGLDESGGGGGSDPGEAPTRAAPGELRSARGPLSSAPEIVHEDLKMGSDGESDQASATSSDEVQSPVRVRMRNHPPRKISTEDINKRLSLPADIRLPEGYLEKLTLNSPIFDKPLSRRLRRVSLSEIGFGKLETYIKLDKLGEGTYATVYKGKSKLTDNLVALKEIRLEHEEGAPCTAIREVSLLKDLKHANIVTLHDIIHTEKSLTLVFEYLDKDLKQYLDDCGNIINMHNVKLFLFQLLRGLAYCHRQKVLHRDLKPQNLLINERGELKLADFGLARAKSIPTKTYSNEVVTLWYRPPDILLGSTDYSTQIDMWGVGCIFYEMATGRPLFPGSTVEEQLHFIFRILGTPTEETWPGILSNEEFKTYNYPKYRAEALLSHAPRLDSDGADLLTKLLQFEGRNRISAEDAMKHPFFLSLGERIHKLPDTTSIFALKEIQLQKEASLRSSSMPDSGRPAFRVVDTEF
Chain of CDK16 (PCTK1)/cyclin Y (Q8ND76 whole entry partner): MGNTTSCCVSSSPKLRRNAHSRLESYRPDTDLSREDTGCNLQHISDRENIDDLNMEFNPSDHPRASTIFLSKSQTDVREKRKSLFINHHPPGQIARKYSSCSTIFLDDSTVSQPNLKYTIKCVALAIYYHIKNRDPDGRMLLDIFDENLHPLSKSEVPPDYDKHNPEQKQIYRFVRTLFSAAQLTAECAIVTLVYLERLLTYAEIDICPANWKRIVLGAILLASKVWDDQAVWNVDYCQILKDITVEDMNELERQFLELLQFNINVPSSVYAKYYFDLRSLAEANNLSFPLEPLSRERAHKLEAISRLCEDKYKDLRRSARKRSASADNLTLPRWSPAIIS
Chain of CDK5 (Inactive) (Q00535 whole entry): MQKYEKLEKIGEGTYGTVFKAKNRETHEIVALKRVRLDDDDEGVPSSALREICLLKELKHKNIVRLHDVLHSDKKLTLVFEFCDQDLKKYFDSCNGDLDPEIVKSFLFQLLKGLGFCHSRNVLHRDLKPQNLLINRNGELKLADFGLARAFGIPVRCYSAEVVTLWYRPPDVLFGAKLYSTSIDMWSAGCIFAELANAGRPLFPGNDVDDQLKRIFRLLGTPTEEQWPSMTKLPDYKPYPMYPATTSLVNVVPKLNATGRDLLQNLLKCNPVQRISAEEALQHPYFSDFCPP

## COc1ccc2nc3cc(Cl)ccc3c(Nc3cc(CN4CCCC4)c(O)c(CN4CCCC4)c3)c2n1 [Pyronaridine, 4-[(7-Chloro-2-methoxybenzo[b][1,5]naphthyridin-10-yl)amino]-2,6-bis(1-pyrrolidinylmethyl)phenol phosphate (1:4)]
KIT V654A
  inhibition at 1 µM: 10%
ABL1 M351T
  inhibition at 1 µM: 8%
TAOK3 (JIK)
  inhibition at 1 µM: -2%
LIMK2
  inhibition at 1 µM: -1%
STK39 (STLK3)
  inhibition at 1 µM: -19%
BRSK2
  inhibition at 1 µM: 4%
FGFR3 G697C
  inhibition at 1 µM: 7%
AMPK (A1/B1/G2)
  inhibition at 1 µM: -7%
TTK
  inhibition at 1 µM: 4%
ERN2
  inhibition at 1 µM: 6%
ALK F1174L
  inhibition at 1 µM: 8%
CAMKK2 (CaMKK beta)
  inhibition at 1 µM: -1%
CDK16 (PCTK1)/cyclin Y
  inhibition at 1 µM: -12%
BRAF
  inhibition at 1 µM: -11%
CDK5 (Inactive)
  inhibition at 1 µM: -1%
MAP2K5 (MEK5)
  inhibition at 1 µM: 1%
STK17B (DRAK2)
  inhibition at 1 µM: -4%
MAPK8 (JNK1)
  inhibition at 1 µM: 3%
PLK4
  inhibition at 1 µM: 6%
CDK3/cyclin E1
  inhibition at 1 µM: 3%
TGFBR1 (ALK5)
  inhibition at 1 µM: -4%
DDR2 N456S
  inhibition at 1 µM: 17%
ERN1
  inhibition at 1 µM: 6%
FYN A
  inhibition at 1 µM: -3%
ALK L1196M
  inhibition at 1 µM: -3%
STK32C (YANK3)
  inhibition at 1 µM: 1%
RET M918T
  inhibition at 1 µM: -3%
TEC
  inhibition at 1 µM: 7%
